# Data: patent US20080300299A1, “Application of Eriocalyxin B in the Manufacture of Medicaments For Treating Leukemia” (Rui Jin Hospital Affiliated to Shanghai Second Medical …, priority 2005, published 2008)
# Where “and” joins values, the source holds several entries; their conditions need not be identical. Identical values can stand only once.
# Key:
# Kasumi-1 cells [1] = assay: Annexin V-FITC/PI apoptosis flow cytometry; format: cell-based, human; conditions: 0.5 μM EriB
# Procedure: (§1) (IV) Flow cytometric for annexin-V, cell cycle, mitochondrial transmembrane potential and reactive oxygen species (ROS) generation: Cell apoptosis was analyzed using an ApoAlert Annexin V-FITC Apoptosis kit (BD). In the process of analyzing the cell cycle, the cells were fixed overnight in methanol at −20° C., followed by treatment of Tris-HCl buffer (pH 7.4) comprising 1% RNase, 50 μg/ml PI staining. In the detection of mitochondrial transmembrane potential, the cells were washed with PBS, incubated at 37° C. and with […] Rh123 for 30 minutes, and then staining with 50 μg/ml PI. DCFH-DA was used to detect ROS levels, thus the cells were washed with PBS, and incubated at 37° C. and with […] DCFH-DA for 30 minutes. Fluorescence intensity was measured by flow cytometry.
# Kasumi-1 cells [2] = assay: ROS level flow cytometry; format: cell-based, human
# Procedure: as §1
# NF-κB [3] = assay: NF-κB luciferase report assay in Kasumi-1 cells; format: cell-based, human; conditions: pre-treatment with EriB for one hour, then TNF-α four hours
# Procedure: (§2) (X) Luciferase report assay: Kasumi-1 cells were resuspended in cultured medium, added the gene vector [10 μg, NF-κB-mediated luciferase reporter plasmid or pAP1-luc (Clontech), and 2 μg of β-galactosidase enzyme expression plasmid for correcting cell transfection efficiency of the CMV-mediated. Cell transfection conditions were: 1000V, 25 μF, and the instrument came from the Bio-Rad Laboratories, Inc. Transfections after 36 hours, the cells were treated with EriB and/or TNFα, and then the cells were lysed. Luciferase activity was measured by lumat LB 9507 tube luminometer (EG&G Berthold). Cell lysates were mixed with 2×β-half-galactosidase reaction reagents, after incubated for one hour at 37° C., the termination of reaction by adding 1 M Na2CO3. The β-galactosidase enzyme absorbance values were measured at 420 nm by spectrophotometer.
# Bcl-XL = assay: Western blot and RT-PCR of Bcl-XL in Kasumi-1 cells; format: cell-based, human; conditions: EriB 24 and 48 hours
# Procedure: (§3) (VII) Western Blot analysis: lysing 5×10^6 cells with 200 μl Laemmli lysis buffer (0.5M Tris-HCl, pH 6.8, 2 mM EDTA, 10% glycerol, 2% SDS and 5% β-mercaptoethanol). Protein lysate (20 μg) was used on 10% polyacrylamide gel electrophoresis, and then transferred to nitrocellulose membranes. Nitrocellulose membranes were blocked with TBS/0.05% Tween 20 5% skim (nonfat) milk, and afterwards, incubated with primary antibody for two hours at room temperature, and incubated with horseradish peroxidase labeled IgG for one hour. The Immunocomplexes were detected with chemiluminescence horseradish peroxidase detection kit. The signal intensities of the respective bands were analyzed with Quantity One version 4.1.1 software.
# (§4) (IX) Semi-quantitative reverse transcription-PCR (RT-PCR): the total RNA was extracted using Trizol (Invitrogen). Random hexamers and Superscript II (Invitrogen) ART were used for reverse transcribed into cDNA. The present invention utilized the following primers: […]
# NF-κB [4] = assay: Gel electrophoresis shift assay (EMSA) of NF-κB DNA binding; format: cell-based, human; conditions: EriB added one hour before TNF-α
# Procedure: (XI) Gel electrophoresis shift assay: nucleoprotein extracts of Kasumi-1 cells were quantitatively determined by using Coomassie plus reagent (Pierce). Nucleoprotein (10 μg) and ^32P marked double-stranded NF-κB (5′-[…]-3′) were sequentially incubated, and then […] using 4% of non-denaturing PAGE gel; the marked bands were detected by using autoradiography.
# AP-1 = AP-1 luciferase report assay in Kasumi-1 cells; format: cell-based, human; conditions: 0.5 μM EriB for 4 hours
# Procedure: as §2
# ERK1/2 = assay: Western blot of phosphorylated ERK1/2 in Kasumi-1 cells; format: cell-based, human; conditions: EriB 12 and 24 hours
# Procedure: as §3
# AML1-ETO fusion protein = assay: Western blot of AML1-ETO (anti-ETO antibody) in Kasumi-1 cells; format: cell-based, human; conditions: EriB 24 and 48 hours
# Procedure: as §3
# [5] = tested on: human malignant hematopoietic cell; assay: MTT cell growth inhibition, whole panel; format: cell-based; conditions: all cell lines tested
# Source text: (II) Cell culture, cell survival and cell morphology: the present invention utilized the following human cell lines: AML leukemia with t(8;21) chromosomal translocation Kasumi-1 cell lines, which is also known as acute myeloid leukemia comprising AML1-ETO fusion gene; acute promyelocytic leukemia NB4, NB4/R1 and NB4/R2 cell lines, and acute myeloid leukemia U937 cell lines; Burkitt's lymphoma (Raji and Daudi) cell lines; T-cell acute lymphoblastic leukemia (Jurkat) cell lines. The present invention studied by collecting primary leukemia cells from five AML patients with t(8;21). The diagnoses of patients were established on the bases of morphological examination, cytogenetics study detection of t(8;21) chromosomal translocation, and RT-PCR detection of AML1-ETO fusion protein. Leukemia cells were prepared in the following conditions: separated with Lymphocyte Separation Medium, further isolated and cultured in RPMI-1640 medium (Gibco/BRL), in addition, added 10% FBS (PAA) in 5% CO2-95% air and saturated humidity, and at 37° C. In each experiment, cell inoculation density is 2×10^5/ml. […]
# (§5) (III) MTT experiment: cells were treated with EriB at concentrations of 0.1, 0.25, 0.5, 1, 2, 4, 6, 8 and 10 μM in a 96-hole plate. After 72 hours, 0.1 mg MTT was added to each hole, incubated at 37° C. for four hours later, absorbance values were measured at 570 nm by spectrophotometer.
# Kasumi-1 cells [6] = assay: Kasumi-1 xenograft tumor model in nude mice; format: in vivo; conditions: EriB 2.5 mg/kg intraperitoneal, day 10 to day 19; P<0.05
# Procedure: Another xenograft tumor model was established through subcutaneous injection in nude mice of 3×10^7 Kasumi-1 cells (day 0). The incubation period of tumor formation at the site of injection was about 8-12 days. Beginning from day 10, the mice were treated with EriB (2.5 mg/kg) by intraperitoneal injection only until day 19.
# Bax = assay: Western blot and RT-PCR of Bax in Kasumi-1 cells; format: cell-based, human; conditions: EriB 24 and 48 hours
# Procedure: as §3, §4
# Daudi cells = assay: MTT cell growth inhibition; format: cell-based, human; conditions: 72 hours
# Source text: (§6) (II) Cell culture, cell survival and cell morphology: the present invention utilized the following human cell lines: AML leukemia with t(8;21) chromosomal translocation Kasumi-1 cell lines, which is also known as acute myeloid leukemia comprising AML1-ETO fusion gene; acute promyelocytic leukemia NB4, NB4/R1 and NB4/R2 cell lines, and acute myeloid leukemia U937 cell lines; Burkitt's lymphoma (Raji and Daudi) cell lines; T-cell acute lymphoblastic leukemia (Jurkat) cell lines. The present invention studied by collecting primary leukemia cells from five AML patients with t(8;21). The diagnoses of patients were established on the bases of morphological examination, cytogenetics study detection of t(8;21) chromosomal translocation, and RT-PCR detection of AML1-ETO fusion protein. Leukemia cells were prepared in the following conditions: separated with Lymphocyte Separation Medium, further isolated and cultured in RPMI-1640 medium (Gibco/BRL), in addition, added 10% FBS (PAA) in 5% CO2-95% air and saturated humidity, and at 37° C. In each experiment, cell inoculation density is 2×10^5/ml. The survival rate of cells was accessed using trypan blue dye-exclusion experiments. Cell observations were done by using the Wright's staining method.
# as §5
# Jurkat cells = assay: MTT cell growth inhibition; format: cell-based, human; conditions: 72 hours
# Source text: as §6, §5
# NB4/R2 cells = assay: MTT cell growth inhibition; format: cell-based, human; conditions: 72 hours
# Source text: as §6, §5
# NB4 cells = assay: MTT cell growth inhibition; format: cell-based, human; conditions: 72 hours
# Source text: as §6, §5
# Raji cells = assay: MTT cell growth inhibition; format: cell-based, human; conditions: 72 hours
# Source text: as §6, §5
# U937 cells = assay: MTT cell growth inhibition; format: cell-based, human; conditions: 72 hours
# Source text: as §6, §5
# NB4/R1 cells = assay: MTT cell growth inhibition; format: cell-based, human; conditions: 72 hours
# Source text: as §6, §5
# NF-κB (P65) = assay: Immunofluorescence of P65 nuclear translocation in Kasumi-1 cells; format: cell-based, human; conditions: pretreatment with EriB for one hour, 100 ng/ml TNF-α four hours
# Procedure: (VI) Immunofluorescence: the cells were fixed in methanol for five minutes at −20° C., after being washed with PBS, treated by 0.5% Triton-X-permeability, blocked with 1% BSA, and incubated with anti-P65 antibody at room temperature for one hour; after being washed again with PBS and incubated with the fluorescent-label IgG at room temperature for 30 minutes. The cells were incubated with Hochest 33258 for five minutes later, and observations were proceeded under the fluorescent microscope.
# Kasumi-1 cells [7] = assay: Cell cycle analysis (nuclear DNA content, PI); format: cell-based, human; conditions: 0.25 μM EriB for 6, 12, 24 and 48 hours
# Procedure: as §1
# [8] = tested on: MigA/Etr cells expressing C-terminal truncated AML1-ETO; assay: C57 murine model of t(8;21) leukemia; format: in vivo, mice; conditions: for median survival time: control 25 days, P<0.001
# Procedure: (XII) Leukemia murine model: female C57 mice and nude mice (5-6 weeks) were bred in special pathogen-free environment. C57 mice received 400 cGy from a high-energy linear accelerator at the dose rate of 100 cGy per minute. After 24 hours, the C57 mice were injected with 3×10^6 Mig/Etr cells expressing carbon-terminal truncated AML1-ETO of 0.2 ml PBS via tail vein intravenous injection. Treatments (12 mice in each group) were started five days after injection of leukemia cells. The control group and the EriB treated group, all respectively receive EriB (1.25, or 2.5 mg/kg, intraperitoneal injection for two weeks) and diluents (1% Pluronic F68).
# EriB efficacy in the treatment of murine models. C57 mice were irradiated by lethal dose (LD)50 and injected via tail vein intravenously with 3×10^6 MigA/Etr cells expressing of C-terminal truncated AML1-ETO (day 0). Beginning on day 5, intraperitoneal injection of EriB ([…]) for two weeks. The overall survival rate was measured and calculated started from day 0 to the date of death. All the mice eventually develop symptoms of anemia and difficulty breathing, and also the occurrence of a large number of primitive blood cells in the peripheral blood.
# Kasumi-1 cells [9] = assay: Cell survival (trypan blue dye-exclusion); format: cell-based, human; conditions: 48 hours
# Source text: as §6
# [10] = tested on: primary leukemia cells from patients with t(8;21); assay: Growth inhibition of primary leukemia cells (trypan blue exclusion); format: cell-based, human; conditions: 0.1 and 0.25 μM EriB, all five patients
# Source text: as §6
# Bcl-2 = assay: Western blot and RT-PCR of Bcl-2 in Kasumi-1 cells; format: cell-based, human; conditions: EriB 24 and 48 hours
# Procedure: as §3, §4
# HL60 cells = assay: MTT cell growth inhibition; format: cell-based, human; conditions: 72 hours
# Procedure: as §5
# Kasumi-1 cells [11] = assay: Differentiation associated antigen expression; format: cell-based, human; conditions: 0.1 and 0.25 μM EriB for seven days
# Kasumi-1 cells [12] = assay: Mitochondrial transmembrane potential (Rh123 flow cytometry); format: cell-based, human
# Procedure: as §1
# caspase-3 = assay: Western blot of caspase-3 activation and PARP; format: cell-based, human; conditions: EriB; Kasumi-1, NB4 and NB4/R2 cells
compound,measurement,setting,value
"COC(=O)CC[C@H](NC(=O)[C@H](CC(=O)OC)NC(=O)OCc1ccccc1)C(=O)N[C@H](C(=O)N[C@@H](CC(=O)OC)C(=O)CF)C(C)C [Z-DEVD-fmk, reference compound]",effect on rate of EriB-induced apoptosis (annexin V positive cell proportion),Kasumi-1 cells [1]; 40 μM Z-DEVD-fmk pre-treatment one hour,only partially reduced
"C=C1C(=O)[C@]23C[C@H]1CC[C@H]2[C@@]12CO[C@]3(O)[C@@H](O)[C@@H]1C(C)(C)C=CC2=O [EriB, Eriocalyxin B]",cell level of ROS compared with untreated cells,Kasumi-1 cells [2]; 0.5 μM EriB alone for 2 hours,about two
same,base luciferase activity and TNF-α-induced NF-κB activity,NF-κB [3],have been blocked
same,Bcl-XL protein and mRNA levels,Bcl-XL,have decreased
same,"NF-κB activation (DNA binding, EMSA)",NF-κB [4],can block NF-κB activation
same,AP-1 luciferase activity increase,AP-1,about three
same,ERK1/2 phosphorylation level,ERK1/2,rapidly decreased
same,AML1-ETO fusion protein level,AML1-ETO fusion protein,AML1-ETO degradation
same,concentration that inhibits the growth of the cells,[5],0.2 to 2 µM
same,tumor size versus control group,Kasumi-1 cells [6],significantly reduce tumor size
same,Bax expression,Bax,have not changed significantly
same,IC50,Daudi cells,> 1.5 µM
same,IC50,Jurkat cells,> 1.5 µM
same,IC50,NB4/R2 cells,< 1 µM and 0.5 µM
same,IC50,NB4 cells,< 1 µM and 0.5 µM
same,IC50,Raji cells,> 1.5 µM
same,IC50,U937 cells,1 µM
same,IC50,NB4/R1 cells,< 1 µM and 1 µM
same,TNF-α-induced P65 translocation into nucleus,NF-κB (P65),significantly prevent
same,proportion of sub-G1 cells,Kasumi-1 cells [7],higher proportion of sub-G1
same,median survival time,[8]; EriB 1.25 mg/kg intraperitoneal for two weeks,28 days
same,median survival time,[8]; EriB 2.5 mg/kg intraperitoneal for two weeks,32 days
same,spleen size versus untreated mice,"[8]; EriB intraperitoneal, 20 days",obviously smaller
same,cell death,Kasumi-1 cells [9]; 0.25 μM EriB,42.7±6.5%
same,cell death,Kasumi-1 cells [9]; 0.75 μM EriB,90.5±4.3%
same,cell inhibition,[10],more than 60%
same,annexin V-positive cells proportion,Kasumi-1 cells [1]; 48 hours,88.6%
same,Bcl-2 protein and mRNA levels,Bcl-2,have decreased
same,IC50,HL60 cells,1 µM
same,"induction of differentiation (CD11b, CD13, CD14, CD33, CD34, CD64)",Kasumi-1 cells [11],did not induce differentiation
same,mitochondrial transmembrane potential,"Kasumi-1 cells [12]; EriB 24 and 48 hours, time and dose dependent",decreased significantly
same,caspase-3 activation,caspase-3,activated
"O[C@H](CS)[C@H](O)CS (racemic) [DTT, dithiothreitol, reference compound]",ROS level,Kasumi-1 cells [2]; 0.2 mM DTT and EriB jointly incubated,has not changed
same,effect on EriB-induced apoptosis (Rh123),Kasumi-1 cells [12]; 0.2 mM DTT with 0.5 μM EriB,completely inhibit
